System: HSCs
Experiment: N-Acetyl-Cystein (NAC) feeding of plpC-treated Gfi1b^fl/fl and MxCre tg Gfi1b^fl/fl mice; hematological compartments and HSC numbers by flow cytometry
Type: in vivo
Settings: for Number of HSCs in BM NAC treatment / % Lin^− cells in BM NAC treatment / Number of BM cells × 10^6 NAC treatment / Number of HSCs in Spleen NAC treatment / Number of HSCs per 1 ml blood NAC treatment / Number of Lin^− cells × 10^6 NAC treatment / Number of splenocytes × 10^6 NAC treatment: plpC-treated, fed daily with N-Acetyl-Cystein, mean ± SEM
Method: Treatment. MxCre tg Gfi1^fl/fl or Gfi1b^fl/fl mice were injected with polyinosinic-polycytidylic acid (plpC) (Sigma-Aldrich) at a dose of 500 μg per injection every other day for a total of 5 injections. As control, wt or Gfi1b^fl/fl mice not carrying the MxCre tg were injected with plpC. With regard to N-Acetyl-Cystein (Sigma-Aldrich, Mississagua) treatment, mice were fed every day with 500 μl N-Acety-Cystein (50 mg/ml)
Flow cytometry analysis, sorting of HSC and progenitors. HSCs and progenitors were analyzed with a LSR™, or Cyan flow cytometers and HSC were sorted with a MoFlo™ from adult mouse bone marrow as described previously (Kiel et al., 2005, supra; Adolfsson J et al., Cell 2005; 121:295-306). The BrdU experiments and the determination of cell cycle phases by Hoechst staining was done according to described procedures (Wilson et al., 2005, supra). Reactive oxygen species (ROS) were analyzed by staining HSCs with 5-(and-6)-carboxy-2′,7′-dichlorodihydrofluorescein diacetate (carboxy-H2DCFDA) (Invitrogen, Burlington, Canada) for 30 min at 37° C. After staining, cells were analyzed by flow cytometry for level of ROS in HSCs.
To verify whether loss of Gfi1b activates HSCs and that this activation leads to increased level of ROS which in turn could lead to an expansion of HSCs, mice were fed with N-Acetyl-Cystein (NAC), which counteracts the effects of ROS (Ito K, et al. Nat Med. April 2006; 12(4):446-451).

[1] = Gfi1b^fl/fl Mx-Cre tg (Gfi1b deficient) mice
[2] = Gfi1b^fl/fl Mx-Cre tg vs Gfi1b^fl/fl, both NAC treated

CC(=O)N[C@@H](CS)C(=O)O [NAC, N-Acetyl-Cystein]
Number of HSCs in BM NAC treatment (Gfi1b^fl/fl (wt) mice, HSCs = Lin^−, Sca-1^+, Kit^+, CD150^+, CD48^−): 1700 ± 700,
% Lin^− cells in BM NAC treatment (Gfi1b^fl/fl (wt) mice): 1.5 ± 0.1, %
Number of BM cells × 10^6 NAC treatment (Gfi1b^fl/fl (wt) mice): 45 ± 4, × 10^6
Number of HSCs in Spleen NAC treatment (Gfi1b^fl/fl (wt) mice): 197 ± 77,
Number of HSCs per 1 ml blood NAC treatment (Gfi1b^fl/fl (wt) mice): 11 ± 1, per 1 ml blood
Number of Lin^− cells × 10^6 NAC treatment (Gfi1b^fl/fl (wt) mice): 0.8 ± 0.1, × 10^6
Number of splenocytes × 10^6 NAC treatment (Gfi1b^fl/fl (wt) mice): 86 ± 22, × 10^6
% Lin^− cells in BM NAC treatment [1]: 2.45 ± 0.5, %
Number of BM cells × 10^6 NAC treatment [1]: 44 ± 2, × 10^6
Number of HSCs in BM NAC treatment [1]: 5700 ± 1100,
Number of HSCs in Spleen NAC treatment [1]: 6000 ± 2000,
Number of HSCs per 1 ml blood NAC treatment [1]: 307 ± 100, per 1 ml blood
Number of Lin^− cells × 10^6 NAC treatment [1]: 1.1 ± 0.4, × 10^6
Number of splenocytes × 10^6 NAC treatment [1]: 104 ± 22, × 10^6
% Lin^− cells in BM NAC treatment, fold change [2]: 1.6
Number of BM cells NAC treatment, fold change [2]: 1
Number of HSCs in BM NAC treatment, fold change [2]: 3
Number of HSCs in Spleen NAC treatment, fold change [2]: 30
Number of HSCs per 1 ml blood NAC treatment, fold change [2]: 28
Number of Lin^− cells NAC treatment, fold change [2]: 1.4
Number of splenocytes NAC treatment, fold change [2]: 1.2
Effect on expansion of Gfi1b^ko/ko HSCs (frequencies and absolute numbers) (bone marrow, spleen and peripheral blood, NAC-treated vs untreated Gfi1b-deficient mice): significantly limited the expansion
